Activity calls are given as the source filed them. The rule behind the calls is not given here.

Test [1] addresses T1, 17-beta-hydroxysteroid dehydrogenase type 1 (Homo sapiens) (UniProt P14061).
T1 sequence (whole entry): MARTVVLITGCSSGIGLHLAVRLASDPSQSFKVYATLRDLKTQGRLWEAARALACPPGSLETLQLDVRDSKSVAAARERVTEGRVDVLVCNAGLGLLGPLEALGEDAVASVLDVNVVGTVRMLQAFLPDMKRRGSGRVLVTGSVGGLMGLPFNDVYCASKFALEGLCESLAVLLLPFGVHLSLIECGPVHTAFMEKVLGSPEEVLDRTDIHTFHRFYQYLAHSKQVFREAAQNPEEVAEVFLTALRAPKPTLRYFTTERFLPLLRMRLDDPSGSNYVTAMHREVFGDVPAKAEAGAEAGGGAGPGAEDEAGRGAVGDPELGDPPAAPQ
The experiment in a line: Inhibition of human recombinant 17-beta-HSD1 expressed in human HeLa cells using estrone as substrate preincubated for 30 mins prior substrate addition measured after 120 mins by spectrophotometry. The format is cell-based.

Test [2] has as its target T2, 17-beta-hydroxysteroid dehydrogenase type 2 (Homo sapiens) (UniProt P37059).
T2 sequence (whole entry): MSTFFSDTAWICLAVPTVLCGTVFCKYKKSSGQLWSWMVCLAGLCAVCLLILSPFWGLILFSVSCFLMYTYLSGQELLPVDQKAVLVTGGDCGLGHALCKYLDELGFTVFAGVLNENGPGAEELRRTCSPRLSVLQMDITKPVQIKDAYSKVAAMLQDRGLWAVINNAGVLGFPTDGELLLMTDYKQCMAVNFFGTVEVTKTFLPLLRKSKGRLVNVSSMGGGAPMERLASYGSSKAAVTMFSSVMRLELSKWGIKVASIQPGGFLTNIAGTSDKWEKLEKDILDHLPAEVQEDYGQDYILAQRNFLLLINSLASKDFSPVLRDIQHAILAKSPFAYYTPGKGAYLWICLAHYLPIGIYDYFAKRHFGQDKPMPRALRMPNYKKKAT
The test is described as follows: Inhibition of human recombinant 17-beta-HSD2 expressed in human HeLa cells using estradiol as substrate preincubated for 30 mins prior substrate addition measured after 120 mins by spectrophotometry. The format is cell-based.

The target of test [3] is T3, Androgen receptor (Homo sapiens) (UniProt P10275).
T3 sequence (whole entry): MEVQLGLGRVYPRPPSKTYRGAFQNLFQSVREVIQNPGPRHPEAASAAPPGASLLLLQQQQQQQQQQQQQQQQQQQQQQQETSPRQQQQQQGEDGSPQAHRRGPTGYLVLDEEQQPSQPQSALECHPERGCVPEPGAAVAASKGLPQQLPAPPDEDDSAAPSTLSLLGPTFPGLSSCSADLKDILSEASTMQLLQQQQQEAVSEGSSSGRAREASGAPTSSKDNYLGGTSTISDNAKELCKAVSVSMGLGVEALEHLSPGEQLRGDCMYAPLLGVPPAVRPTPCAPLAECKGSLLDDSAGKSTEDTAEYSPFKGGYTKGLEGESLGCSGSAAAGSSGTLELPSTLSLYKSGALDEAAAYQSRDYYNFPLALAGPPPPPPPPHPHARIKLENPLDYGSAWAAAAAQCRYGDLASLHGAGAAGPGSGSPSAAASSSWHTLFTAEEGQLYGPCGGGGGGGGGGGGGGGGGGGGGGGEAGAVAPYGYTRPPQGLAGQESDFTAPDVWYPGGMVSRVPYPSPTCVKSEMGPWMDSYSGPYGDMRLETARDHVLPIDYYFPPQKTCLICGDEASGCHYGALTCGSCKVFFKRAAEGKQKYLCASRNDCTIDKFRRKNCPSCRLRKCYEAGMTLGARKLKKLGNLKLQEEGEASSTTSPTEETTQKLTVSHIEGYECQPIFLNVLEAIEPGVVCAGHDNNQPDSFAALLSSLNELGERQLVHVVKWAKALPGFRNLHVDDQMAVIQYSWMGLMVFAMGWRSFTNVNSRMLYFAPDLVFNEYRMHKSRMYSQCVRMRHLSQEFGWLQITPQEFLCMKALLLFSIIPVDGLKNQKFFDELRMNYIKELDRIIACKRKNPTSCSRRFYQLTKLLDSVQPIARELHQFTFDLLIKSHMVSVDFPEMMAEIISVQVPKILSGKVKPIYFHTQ
The test is described as follows: Agonist activity at human androgen receptor expressed in human HeLa cells assessed as DHT-induced response after 40 hrs by luciferase/beta-galactosidase-based reporter gene assay. The class given is functional, cell-based. (Reporter assays use an easily measured gene product as a stand-in for the process of interest.)

The target of test [4] is T4, Estrogen receptor (Homo sapiens) (UniProt P03372).
T4 sequence (whole entry): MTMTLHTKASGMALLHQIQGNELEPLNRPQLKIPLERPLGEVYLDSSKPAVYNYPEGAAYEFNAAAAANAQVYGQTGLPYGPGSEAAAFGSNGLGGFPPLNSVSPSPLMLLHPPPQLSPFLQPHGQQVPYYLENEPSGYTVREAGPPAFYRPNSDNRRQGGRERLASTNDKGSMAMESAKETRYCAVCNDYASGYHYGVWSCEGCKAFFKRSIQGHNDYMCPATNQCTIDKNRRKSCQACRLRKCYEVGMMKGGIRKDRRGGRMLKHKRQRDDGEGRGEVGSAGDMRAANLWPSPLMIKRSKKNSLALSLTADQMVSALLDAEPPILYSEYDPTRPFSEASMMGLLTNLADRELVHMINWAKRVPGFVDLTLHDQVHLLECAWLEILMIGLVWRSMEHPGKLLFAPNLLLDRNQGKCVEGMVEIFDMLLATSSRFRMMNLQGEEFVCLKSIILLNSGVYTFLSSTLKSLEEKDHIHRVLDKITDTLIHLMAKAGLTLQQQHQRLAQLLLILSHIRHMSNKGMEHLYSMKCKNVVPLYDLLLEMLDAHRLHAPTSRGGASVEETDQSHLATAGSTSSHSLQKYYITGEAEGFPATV
The experiment in a line: Agonist activity at human Estrogen receptor ERalpha expressed in human HeLa cells assessed as DHT-induced response after 40 hrs by luciferase/beta-galactosidase-based reporter gene assay. The format is functional, cell-based.

For test [5], the target named is T5, Glucocorticoid receptor (Homo sapiens) (UniProt P04150).
T5 sequence (whole entry): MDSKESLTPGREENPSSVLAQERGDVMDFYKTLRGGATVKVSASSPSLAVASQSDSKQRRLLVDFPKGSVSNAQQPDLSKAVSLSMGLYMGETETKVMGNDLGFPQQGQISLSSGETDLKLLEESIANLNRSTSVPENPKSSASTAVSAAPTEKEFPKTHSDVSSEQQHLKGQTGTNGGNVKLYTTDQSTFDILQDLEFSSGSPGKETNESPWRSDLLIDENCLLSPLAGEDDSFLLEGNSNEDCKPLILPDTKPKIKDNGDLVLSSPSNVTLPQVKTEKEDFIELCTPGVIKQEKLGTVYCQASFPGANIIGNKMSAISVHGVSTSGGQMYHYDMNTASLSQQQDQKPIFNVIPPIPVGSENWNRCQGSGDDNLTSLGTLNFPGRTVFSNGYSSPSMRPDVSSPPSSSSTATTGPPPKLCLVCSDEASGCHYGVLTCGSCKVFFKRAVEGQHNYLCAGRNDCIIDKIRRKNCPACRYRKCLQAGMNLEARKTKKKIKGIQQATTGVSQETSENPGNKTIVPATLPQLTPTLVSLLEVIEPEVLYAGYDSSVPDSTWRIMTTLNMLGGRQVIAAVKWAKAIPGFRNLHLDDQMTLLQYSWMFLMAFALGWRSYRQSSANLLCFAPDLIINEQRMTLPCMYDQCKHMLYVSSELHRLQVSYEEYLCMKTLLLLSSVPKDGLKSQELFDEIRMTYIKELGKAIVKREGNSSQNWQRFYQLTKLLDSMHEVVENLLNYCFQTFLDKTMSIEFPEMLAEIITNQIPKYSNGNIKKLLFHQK
The test is described as follows: Agonist activity at human Glucocorticoid receptor expressed in human HeLa cells assessed as DHT-induced response after 40 hrs by luciferase/beta-galactosidase-based reporter gene assay. The format is functional, cell-based.

The target of test [6] is T3, Androgen receptor (Homo sapiens). The test is described as follows: Antagonist activity at human androgen receptor expressed in human HeLa cells assessed as inhibition of DHT-induced response after 40 hrs by luciferase/beta-galactosidase-based reporter gene assay. The format is functional, cell-based.
For test [7], the target named is T4, Estrogen receptor (Homo sapiens). The test is described as follows: Antagonist activity at human ERalpha receptor expressed in human HeLa cells assessed as inhibition of DHT-induced response after 40 hrs by luciferase/beta-galactosidase-based reporter gene assay. The class given is functional, cell-based.
In test [8] the target is T5, Glucocorticoid receptor (Homo sapiens). The test is described as follows: Antagonist activity at human GR receptor expressed in human HeLa cells assessed as inhibition of DHT-induced response after 40 hrs by luciferase/beta-galactosidase-based reporter gene assay. The format is functional, cell-based.
Test [9] addresses T6, 17-beta-hydroxysteroid dehydrogenase type 3 (Homo sapiens, UniProt P37058).
T6 sequence (P37058 whole entry): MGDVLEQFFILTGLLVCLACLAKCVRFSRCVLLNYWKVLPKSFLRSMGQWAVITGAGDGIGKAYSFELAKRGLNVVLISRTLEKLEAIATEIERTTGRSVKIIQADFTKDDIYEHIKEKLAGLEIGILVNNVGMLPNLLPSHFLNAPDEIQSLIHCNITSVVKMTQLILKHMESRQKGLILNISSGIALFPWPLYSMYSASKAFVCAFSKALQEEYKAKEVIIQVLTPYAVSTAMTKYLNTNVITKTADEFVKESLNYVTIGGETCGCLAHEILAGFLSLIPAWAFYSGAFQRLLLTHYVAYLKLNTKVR
Description: Inhibition of human recombinant 17-beta-HSD3 expressed in human HeLa cells using androstenedione as substrate preincubated for 30 mins prior substrate addition measured after 120 mins by spectrophotometry

For orientation: IC50 means the midpoint of a concentration-inhibition curve. Read a high IC50 as a need for much substance. Take `CN(C)C(=O)c1ccc(N2C(=O)O/C(=C\c3ccc(O)c(Br)c3)C2=O)cc1`: the inhibition result in test [1] and in test [2] was “inactive” throughout. The outcome in test [3], in test [4], in test [5], in [6], in test [7] and in test [8] was inactive. Besides, the IC50 in test [9] came to 65 nM.

As to `O=C1/C(=C/c2ccc(O)c(Br)c2)SC(=S)N1C1CCCCC1`, the inhibition result in test [1] and in [2] was “inactive” throughout. The outcome in test [3], in test [4], in test [5], in test [6], in [7] and in [8] was inactive. The molecule further returned an IC50 in test [9] of 3 nM.

Turning to `O=C1O/C(=C\c2ccc(O)c(Br)c2)C(=O)N1c1ccccn1`, the inhibition result in test [1] and in test [2] was “inactive” throughout. The outcome in [3], in test [4], in test [5], in [6], in test [7] and in [8] was inactive. The IC50 in test [9] stood at 74 nM.

`O=C1/C(=C/c2ccc(O)c(Br)c2)OC(=S)N1c1ccc(Cl)cc1`: the inhibition entry in test [1] and in test [2] was “inactive” in each case. The result in test [3], in test [4], in [5], in [6], in [7] and in test [8] was inactive. Besides, the IC50 in test [9] came to 6 nM.

For `O=C(Nc1ccc(N2C(=O)O/C(=C\c3ccc(O)c(Br)c3)C2=O)cc1)C1CCCCC1`, the inhibition entry in test [1] and in test [2] was “inactive” throughout. Further, the outcome in [3], in test [4], in [5], in [6], in test [7] and in test [8] was inactive. In test [9], this molecule registered an IC50 of 21 nM.

Consider `COc1ccc(N2C(=O)/C(=C/c3ccc(O)cc3)OC2=S)cc1`, for which the inhibition entry in [1] and in [2] was “inactive” throughout. Further, the result in [3], in test [4], in [5], in test [6], in [7] and in test [8] was inactive. This molecule gave an IC50 in test [9] of 121 nM.

Take `CC(=O)Nc1ccc(N2C(=O)O/C(=C\c3ccc(O)c(Br)c3)C2=O)cc1`: the inhibition result in test [1] and in test [2] was “inactive” each time. Also, the outcome in test [3], in test [4], in test [5], in test [6], in test [7] and in test [8] was inactive. This molecule registered an IC50 in test [9] of 57 nM.

`COC(=O)c1ccc(N2C(=O)O/C(=C\c3ccc(O)c(Br)c3)C2=O)cc1`: the inhibition result in test [1] and in [2] was “inactive” in each case. Besides, the outcome in test [3], in [4], in test [5], in test [6], in test [7] and in [8] was inactive. In test [9], this molecule returned an IC50 of 24 nM.

The record behind these values is ChEMBL document CHEMBL2016457, “Discovery of potent and orally bioavailable 17β-hydroxysteroid dehydrogenase type 3 inhibitors” (Bioorg Med Chem, 2012).
